# According to ChEMBL document CHEMBL4665661, “Design, synthesis, and biological activity evaluation of (-)-6-O-desmethylantofine analogues as potent anti-cancer agents” (Bioorg Med Chem, 2019):
# Experiments:
# HL-60 = assay: Antiproliferative activity against human HL-60 cells after 72 hrs by MTT assay; format: functional, cell-based; settings: HL-60, 72 h
# Bel-7402 = assay: Antiproliferative activity against human Bel-7402 cells after 72 hrs by SRB assay; format: functional, cell-based; settings: Bel-7402, 72 h
SMILES,IC50 (HL-60) [nM],IC50 (Bel-7402) [nM]
CCOC(=O)Oc1ccc2c3c(c4cc(OC)c(OC)cc4c2c1)C[C@H]1CCCN1C3,66,105
CC[C@H](C)[C@H](N)C(=O)OCCOc1ccc2c3c(c4cc(OC)c(OC)cc4c2c1)C[C@H]1CCCN1C3,505,584
COc1cc2c3c(c4ccc(OCCOC(=O)[C@@H](N)Cc5ccccc5)cc4c2cc1OC)CN1CCC[C@@H]1C3,568,669
COc1cc2c3c(c4ccc(OCCO)cc4c2cc1OC)CN1CCC[C@H]1C3,220,374
COc1cc2c3c(c4ccc(OC(C)=O)cc4c2cc1OC)CN1CCC[C@H]1C3,756,1110
COc1cc2c3c(c4ccc(OC(=O)C(C)(C)C)cc4c2cc1OC)CN1CCC[C@H]1C3,219,1540
COc1cc2c3c(c4ccc(OC(=O)c5cccs5)cc4c2cc1OC)CN1CCC[C@@H]1C3,472,83
COc1cc2c3c(c4ccc(OC(=O)/C=C/C=C/c5ccc6c(c5)OCO6)cc4c2cc1OC)CN1CCC[C@@H]1C3,56,199
COc1cc2c3c(c4ccc(OC(=O)C5CCCCC5)cc4c2cc1OC)CN1CCC[C@@H]1C3,674,235
COc1cc2c3c(c4ccc(OC(=O)c5cccnc5)cc4c2cc1OC)CN1CCC[C@H]1C3,762,1770
COc1cc2c3c(c4ccc(OCCO)cc4c2cc1OC)CN1CCC[C@@H]1C3,81,98
COc1cc2c3c(c4ccc(OCCOC(=O)[C@@H](N)C(C)C)cc4c2cc1OC)CN1CCC[C@@H]1C3,908,974
COc1cc2c3c(c4ccc(OCCOC(=O)[C@H](C)N)cc4c2cc1OC)CN1CCC[C@H]1C3,1080,2830
COc1cc2c3c(c4ccc(OC(=O)C(C)(C)C)cc4c2cc1OC)CN1CCC[C@@H]1C3,245,294
COc1cc2c3c(c4ccc(OCCOC(=O)[C@@H](N)C(C)C)cc4c2cc1OC)CN1CCC[C@H]1C3,7800,> 10000
COc1cc2c3c(c4ccc(OC(=O)c5ccccc5)cc4c2cc1OC)CN1CCC[C@@H]1C3,455,428
COc1cc2c3c(c4ccc(O)cc4c2cc1OC)CN1CCC[C@H]1C3,50,292
COc1cc2c3c(c4ccc(OC(=O)/C=C/c5ccc6c(c5)OCO6)cc4c2cc1OC)CN1CCC[C@@H]1C3,153,185
COc1cc2c3c(c4ccc(OC(=O)C5CC5)cc4c2cc1OC)CN1CCC[C@H]1C3,611,877

SMILES,IC50 (HL-60) [nM],IC50 (Bel-7402) [nM]
COc1cc2c3c(c4ccc(OC(=O)C5CC5)cc4c2cc1OC)CN1CCC[C@@H]1C3,181,765
CCOC(=O)Oc1ccc2c3c(c4cc(OC)c(OC)cc4c2c1)C[C@@H]1CCCN1C3,379,2080
COc1cc2c3c(c4ccc(OC(=O)c5ccccc5N)cc4c2cc1OC)CN1CCC[C@@H]1C3,25,83
COc1cc2c3c(c4ccc(OCCOC(=O)[C@@H](N)Cc5c[nH]c6ccccc56)cc4c2cc1OC)CN1CCC[C@@H]1C3,112,248
COc1cc2c3c(c4ccc(OC(C)=O)cc4c2cc1OC)CN1CCC[C@@H]1C3,44,228
COc1cc2c3c(c4ccc(OC(=O)C(C)C)cc4c2cc1OC)CN1CCC[C@H]1C3,683,1590
COc1cc2c3c(c4ccc(O)cc4c2cc1OC)CN1CCC[C@@H]1C3,4,26
COc1cc2c3c(c4ccc(OC(=O)c5ccco5)cc4c2cc1OC)CN1CCC[C@@H]1C3,178,504
COc1cc2c3c(c4ccc(OCC#N)cc4c2cc1OC)CN1CCC[C@H]1C3,301,200
COc1cc2c3c(c4ccc(OC(=O)c5cccnc5)cc4c2cc1OC)CN1CCC[C@@H]1C3,179,133
COc1cc2c3c(c4ccc(OC(=O)c5ccccc5)cc4c2cc1OC)CN1CCC[C@H]1C3,800,1090
COc1cc2c3c(c4ccc(OCCOC(=O)[C@@H]5CCCN5)cc4c2cc1OC)CN1CCC[C@@H]1C3,233,280
COc1cc2c3c(c4ccc(OCCOC(=O)[C@H](C)N)cc4c2cc1OC)CN1CCC[C@@H]1C3,494,642
COc1cc2c3c(c4ccc(OC(=O)N(C)C)cc4c2cc1OC)CN1CCC[C@H]1C3,> 10000,> 10000
COc1cc2c3c(c4ccc(OCCOC(=O)[C@@H](N)CC(C)C)cc4c2cc1OC)CN1CCC[C@@H]1C3,580,1270
COc1cc2c3c(c4ccc(OCCOC(=O)[C@@H](N)Cc5ccccc5)cc4c2cc1OC)CN1CCC[C@H]1C3,600,2280
COc1cc2c3c(c4ccc(OC(=O)N(C)C)cc4c2cc1OC)CN1CCC[C@@H]1C3,2830,8260
COc1cc2c3c(c4ccc(OC(=O)c5cccc6nnsc56)cc4c2cc1OC)CN1CCC[C@@H]1C3,227,173
COc1cc2c3c(c4ccc(OC(=O)C(C)C)cc4c2cc1OC)CN1CCC[C@@H]1C3,106,60
